Test results as given in patent US6527981B1, “Azole/amine oxide preservatives” (Lonza Inc., priority 1999, dated 2003).
Converted amounts (≈) assume the structure as drawn. Where two headings read alike, the source gives them in different places.

What was measured:
[1] = cited from earlier work; for Solubility in Water^b: Material Safety Data Sheet; for Solubility in water^a: The Pesticide Manual, 11th Edition
[2] = test system: C. globosum (soft rot decay fungi); experiment: agar dilution plate method, wood rot fungi (MIC, IC50, percent retardation); format: cell-based; details: azole alone; for MIC: Chaetomium globosum, read-out: C. globosum MIC; for C. globosum IC50: Table2D curve fitting
[3] = test system: P. placenta (brown rot fungi); experiment: as above; format: cell-based; details: azole alone; for P. placenta IC50: Table2D curve fitting; for MIC: read-out: P. placenta MIC
[4] = test system: T. versicolor (white rot fungi); experiment: as above; format: cell-based; details: azole alone; for MIC: Trametes versicolor, read-out: T. versicolor MIC; for T. versicolor IC50: Table2D curve fitting
[5] = test system: G. trabeum (brown rot fungi); experiment: as above; format: cell-based; details: azole alone; for MIC: Gloeophyllum trabeum, read-out: G. trabeum MIC; for G. trabeum IC50: Table2D curve fitting

Question: Which “Solubility in Water^b” value ([1]; 25° C.) does the source give for `N#CC(CCc1ccc(Cl)cc1)(Cn1cncn1)c1ccccc1` (stereo not shown) [Fenbuconazole, fenbuconazole] here?
Answer: 4 ppm at 25 °C

Question: And the “Solubility in water^a” value ([1]; 25° C.)?
Answer: 0.2 ppm/25 °C

Question: And the MIC [2]?
Answer: 50 µg/mL (≈ 148 µM)

Question: What about the “C. globosum IC50” value [2] of the same compound?
Answer: 10.7 ppm

Question: And the “P. placenta IC50” value [3]?
Answer: 3.9 ppm

Question: What about the MIC [3] of the same compound?
Answer: 25 µg/mL (≈ 74.2 µM)

Question: And the MIC [4]?
Answer: 25 µg/mL (≈ 74.2 µM)

Question: What about the “T. versicolor IC50” value [4] of the same compound?
Answer: 1.1 ppm

Question: And the MIC [5]?
Answer: 50 µg/mL (≈ 148 µM)

Question: And the “G. trabeum IC50” value [5]?
Answer: 0.3 ppm

Question: Which results are given for `CCCCC(C#N)(Cn1cncn1)c1ccc(Cl)cc1` (stereo not shown) [Myclobutanil, myclobutanil]?
Answer: Solubility in Water^b ([1]; 25° C.): 142 ppm at 25 °C; Solubility in water^a ([1]; 25° C.): 142 ppm/25 °C; MIC [2]: > 50 µg/mL; P. placenta IC50 [3]: 13 ppm; MIC [3]: 50 µg/mL (≈ 173 µM); MIC [4]: 50 µg/mL (≈ 173 µM); T. versicolor IC50 [4]: 6 ppm; MIC [5]: > 50 µg/mL; G. trabeum IC50 [5]: 4.3 ppm

Question: With `CC(C)(C)C(O)(CCc1ccc(Cl)cc1)Cn1cncn1` (stereo not shown) [Tebuconazole, tebuconazole] as the compound, how does the “Solubility in Water^b” value ([1]; 20° C.) read?
Answer: 32 ppm at 20 °C

Question: And the MIC [2]?
Answer: 50 to 500 µg/mL (≈ 162 to 1620 µM)

Question: What about the “C. globosum IC50” value [2] of the same compound?
Answer: 34.5 ppm

Question: What about the “Qb, concentration of azole alone required to yield 100% retardation, P. placenta” value [3] of the same compound?
Answer: 50 ppm

Question: What about the “P. placenta IC50” value [3] of the same compound?
Answer: 1.7 ppm

Question: And the MIC [3]?
Answer: 50 µg/mL (≈ 162 µM)

Question: And the MIC [4]?
Answer: 25 µg/mL (≈ 81.2 µM)

Question: What about the “Qb, concentration of azole alone required to yield 100% retardation, T. versicolor” value [4] of the same compound?
Answer: 25 ppm

Question: And the “T. versicolor IC50” value [4]?
Answer: 2.3 ppm

Question: What about the MIC [5] of the same compound?
Answer: 10 µg/mL (≈ 32.5 µM)

Question: What about the “Qb, concentration of azole alone required to yield 100% retardation, G. trabeum” value [5] of the same compound?
Answer: 10 ppm

Question: And the “G. trabeum IC50” value [5]?
Answer: <0.1 ppm
